In patent US4539202A, “Derivatives of clavulanic acid, a process for their preparation and their use” (Beecham Group p.l.c., priority 1983, dated 1985):
≈ marks a conversion by molar mass, not a printed value. Where two headings read alike, the source gives them in different places.

Assays:
K aerogenes E70 [1] = assay: Antibacterial activity, standard MIC test; assay type: cell-based; details: Klebsiella aerogenes, compound alone
Text: (§1) Using conventional methods the following results were obtained in a standard MIC test: […]

St aureus Russell [2] = assay: Antibacterial activity, standard MIC test; assay type: cell-based; details: Staphylococcus aureus, compound alone
Text: as §1

E coli JT39 [3] = assay: Antibacterial activity, standard MIC test; assay type: cell-based, Escherichia coli; details: compound alone
Text: as §1

St aureus Russell [4] = assay: Synergistic activity with amoxycillin, standard MIC test; assay type: cell-based, Staphylococcus aureus; details: amoxycillin alone
Text: (§2) Synergistic Activity with Amoxycillin
as §1

K aerogenes E70 [5] = assay: as above; assay type: cell-based, Klebsiella aerogenes; details: amoxycillin alone
Text: as §2, §1

E coli JT39 [6] = assay: as above; assay type: cell-based, Escherichia coli; details: amoxycillin alone
Text: as §2, §1

[7] = Escherichia coli, read-out: MIC

MIC (K aerogenes E70 [1]) [µg/mL]	MIC (St aureus Russell [2]) [µg/mL]	MIC (E coli JT39 [3]; [7]) [µg/mL]	MIC amoxycillin (St aureus Russell [4]) [µg/mL]	MIC amoxycillin (K aerogenes E70 [5]) [µg/mL]	MIC amoxycillin (E coli JT39 [6]) [µg/mL]	Compound	MIC (E coli JT39 [3]) [µg/mL]
> 500	31 (≈ 115 µM)	15 (≈ 55.5 µM)				O=C(O)CCNC/C=C1\O[C@@H]2CC(=O)N2[C@H]1C(=O)O [1(b), 9-N-(2'-Carboxyethyl)aminodeoxyclavulanic acid]	
250 (≈ 838 µM)	31 (≈ 104 µM)	62.5 (≈ 210 µM)				O=C(O)CCCCNC/C=C1\O[C@@H]2CC(=O)N2[C@H]1C(=O)O [3(c), 9-N-(4'-Carboxybutyl)aminodeoxyclavulanic acid]	
250 (≈ 752 µM)	4 (≈ 12 µM)	31 (≈ 93.3 µM)				O=C(O)c1ccc(CNC/C=C2\O[C@@H]3CC(=O)N3[C@H]2C(=O)O)cc1 [4(c), 9-N-(4'-Carboxybenzyl)aminodeoxyclavulanic acid]	
250 (≈ 879 µM)	62.5 (≈ 220 µM)	31 (≈ 109 µM)				O=C(O)CCCNC/C=C1\O[C@@H]2CC(=O)N2[C@H]1C(=O)O [10(b), 9-N-(3'-Carboxypropyl)aminodeoxyclavulanic acid]	
> 500	8 (≈ 20.9 µM)					O=C(O)CCCCCCCCCCNC/C=C1\O[C@@H]2CC(=O)N2[C@H]1C(=O)O [11(b), 9-N-(10'-Carboxydecyl)aminodeoxyclavulanic acid]	

Second part, the molecule before the results:

Compound	MIC (K aerogenes E70 [1]) [µg/mL]	MIC (St aureus Russell [2]) [µg/mL]	MIC (E coli JT39 [3]; [7]) [µg/mL]	MIC amoxycillin (St aureus Russell [4]) [µg/mL]	MIC amoxycillin (K aerogenes E70 [5]) [µg/mL]	MIC amoxycillin (E coli JT39 [6]) [µg/mL]	MIC (E coli JT39 [3]) [µg/mL]
COC(=O)CCNC/C=C1\O[C@@H]2CC(=O)N2[C@H]1C(=O)O [6(b), 9-N-(2'-Methoxycarbonylethyl)aminodeoxyclavulanic acid]	250 (≈ 879 µM)	8 (≈ 28.1 µM)	31 (≈ 109 µM)				
O=C(O)CCCCCNC/C=C1\O[C@@H]2CC(=O)N2[C@H]1C(=O)O [9(b), 9-N-(5'-Carboxypentyl)aminodeoxyclavulanic acid]	250 (≈ 800 µM)	31 (≈ 99.3 µM)	31 (≈ 99.3 µM)				
O=C(O)[C@H]1/C(=C/CNC[C@H]2CC[C@H](C(=O)O)CC2)O[C@@H]2CC(=O)N21 [12(d), 9-N-(trans-4'-Carboxycyclohexylmethyl)aminodeoxyclavulanic acid]	250 (≈ 739 µM)	16 (≈ 47.3 µM)	31 (≈ 91.6 µM)				
N[C@@H](CCCCNC/C=C1\O[C@@H]2CC(=O)N2[C@H]1C(=O)O)C(=O)O [14(d)]	> 500	31 (≈ 94.7 µM)					125 (≈ 382 µM)
CC1(C)S[C@@H]2[C@H](NC(=O)[C@H](N)c3ccc(O)cc3)C(=O)N2[C@H]1C(=O)O [Amoxycillin]				500	500	2000	
